{
  "source": "ChEMBL document CHEMBL1201862",
  "about": "“PubChem BioAssay data set” (2004)",
  "assay_in_all_cases": "inhibition of tumour cell growth, NCI panel, 48 h",
  "key": {"COLO 205": {"test_system": "COLO 205"}, "SK-MEL-5": {"test_system": "SK-MEL-5"}, "NCI-H460": {"test_system": "NCI-H460"}, "SF-539": {"test_system": "SF-539"}, "LOX IMVI": {"test_system": "LOX IMVI"}, "ACHN": {"test_system": "ACHN"}, "MDA-N": {"test_system": "MDA-N"}, "DU-145": {"test_system": "DU-145"}, "HL-60": {"test_system": "HL-60"}, "A549": {"test_system": "A549"}, "UACC-62": {"test_system": "UACC-62"}, "MDA-MB-435": {"test_system": "MDA-MB-435"}, "NCI-H522": {"test_system": "NCI-H522"}, "M14": {"test_system": "M14"}, "IGROV-1": {"test_system": "IGROV-1"}, "SK-MEL-28": {"test_system": "SK-MEL-28"}, "HCT-15": {"test_system": "HCT-15"}, "786-0": {"test_system": "786-0"}, "UACC-257": {"test_system": "UACC-257"}, "SN12C": {"test_system": "SN12C"}, "CAKI-1": {"test_system": "CAKI-1"}, "OVCAR-5": {"test_system": "OVCAR-5"}, "KM12": {"test_system": "KM12"}, "TK-10": {"test_system": "TK-10"}, "UO-31": {"test_system": "UO-31"}, "K562": {"test_system": "K562"}, "MOLT-4": {"test_system": "MOLT-4"}, "A498": {"test_system": "A498"}, "OVCAR-8": {"test_system": "OVCAR-8"}, "HCT-116": {"test_system": "HCT-116"}, "RXF 393": {"test_system": "RXF 393"}, "HOP-62": {"test_system": "HOP-62"}, "SF-295": {"test_system": "SF-295"}, "BT-549": {"test_system": "BT-549"}, "SNB-19": {"test_system": "SNB-19"}, "RPMI-8226": {"test_system": "RPMI-8226"}, "NCI-H23": {"test_system": "NCI-H23"}, "MCF7": {"test_system": "MCF7"}, "OVCAR-3": {"test_system": "OVCAR-3"}, "HOP-92": {"test_system": "HOP-92"}, "EKVX": {"test_system": "EKVX"}, "OVCAR-4": {"test_system": "OVCAR-4"}, "Malme-3M": {"test_system": "Malme-3M"}, "HT-29": {"test_system": "HT-29"}, "SK-OV-3": {"test_system": "SK-OV-3"}, "SW-620": {"test_system": "SW-620"}, "Hs-578T": {"test_system": "Hs-578T"}, "SR": {"test_system": "SR"}, "SF-268": {"test_system": "SF-268"}, "SNB-75": {"test_system": "SNB-75"}, "NCI/ADR-RES": {"test_system": "NCI/ADR-RES"}, "HCC 2998": {"test_system": "HCC 2998"}, "CCRF-CEM": {"test_system": "CCRF-CEM"}},
  "note": "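Cells were grown in 96-well plates and exposed to each compound for 48 hours at five concentrations; endpoints were interpolated linearly between bracketing concentrations, or set to the highest concentration if not reached. GI50 is the concentration that inhibits growth by half.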 Active and inactive are the calls of the source. Cut-off read from the data, not from the text of the source: active = GI50 up to about 1.1 µM and inactive = higher.",
  "data": [
    {"molecule": "CCOC(=O)/C(=C\\NCC(O)c1ccccc1)c1nc2ccccc2[nH]1", "note": "(stereo not drawn)", "values": [
      {"measurement": "GI50", "setting": "COLO 205", "result": "16.7 µM (inactive)"},
      {"measurement": "GI50", "setting": "SK-MEL-5", "result": "11 µM (inactive)"},
      {"measurement": "GI50", "setting": "NCI-H460", "result": "17.2 µM (inactive)"},
      {"measurement": "GI50", "setting": "SF-539", "result": "21.1 µM (inactive)"},
      {"measurement": "GI50", "setting": "LOX IMVI", "result": "19.5 µM (inactive)"},
      {"measurement": "GI50", "setting": "ACHN", "result": "11 µM (inactive)"},
      {"measurement": "GI50", "setting": "MDA-N", "result": "27.5 µM (inactive)"},
      {"measurement": "GI50", "setting": "DU-145", "result": "28.4 µM (inactive)"},
      {"measurement": "GI50", "setting": "HL-60", "result": "13.6 µM (inactive)"},
      {"measurement": "GI50", "setting": "A549", "result": "33.7 µM (inactive)"},
      {"measurement": "GI50", "setting": "UACC-62", "result": "14.2 µM (inactive)"},
      {"measurement": "GI50", "setting": "MDA-MB-435", "result": "20.9 µM (inactive)"},
      {"measurement": "GI50", "setting": "NCI-H522", "result": "17.5 µM (inactive)"},
      {"measurement": "GI50", "setting": "M14", "result": "30.4 µM (inactive)"},
      {"measurement": "GI50", "setting": "IGROV-1", "result": "20.1 µM (inactive)"},
      {"measurement": "GI50", "setting": "SK-MEL-28", "result": "17.2 µM (inactive)"},
      {"measurement": "GI50", "setting": "HCT-15", "result": 21.6, "unit": "µM"},
      {"measurement": "GI50", "setting": "786-0", "result": "27.5 µM (inactive)"},
      {"measurement": "GI50", "setting": "UACC-257", "result": "19.6 µM (inactive)"},
      {"measurement": "GI50", "setting": "SN12C", "result": "31.9 µM (inactive)"},
      {"measurement": "GI50", "setting": "CAKI-1", "result": "32.4 µM (inactive)"},
      {"measurement": "GI50", "setting": "OVCAR-5", "result": "26.4 µM (inactive)"},
      {"measurement": "GI50", "setting": "KM12", "result": "21.6 µM (inactive)"},
      {"measurement": "GI50", "setting": "TK-10", "result": "26.1 µM (inactive)"},
      {"measurement": "GI50", "setting": "UO-31", "result": "0.103 µM (active)"},
      {"measurement": "GI50", "setting": "K562", "result": "19.8 µM (inactive)"},
      {"measurement": "GI50", "setting": "MOLT-4", "result": "11.8 µM (inactive)"},
      {"measurement": "GI50", "setting": "A498", "result": "20.1 µM (inactive)"},
      {"measurement": "GI50", "setting": "OVCAR-8", "result": "23.2 µM (inactive)"},
      {"measurement": "GI50", "setting": "HCT-116", "result": "28.6 µM (inactive)"},
      {"measurement": "GI50", "setting": "RXF 393", "result": "27.4 µM (inactive)"},
      {"measurement": "GI50", "setting": "HOP-62", "result": "43.5 µM (inactive)"},
      {"measurement": "GI50", "setting": "SF-295", "result": "24.8 µM (inactive)"},
      {"measurement": "GI50", "setting": "BT-549", "result": "29.9 µM (inactive)"},
      {"measurement": "GI50", "setting": "SNB-19", "result": "48.9 µM (inactive)"},
      {"measurement": "GI50", "setting": "RPMI-8226", "result": "11.3 µM (inactive)"},
      {"measurement": "GI50", "setting": "NCI-H23", "result": "18.1 µM (inactive)"},
      {"measurement": "GI50", "setting": "MCF7", "result": "18.7 µM (inactive)"},
      {"measurement": "GI50", "setting": "OVCAR-3", "result": "34.7 µM (inactive)"},
      {"measurement": "GI50", "setting": "HOP-92", "result": "22.1 µM (inactive)"},
      {"measurement": "GI50", "setting": "EKVX", "result": "21.3 µM (inactive)"},
      {"measurement": "GI50", "setting": "OVCAR-4", "result": "23.8 µM (inactive)"},
      {"measurement": "GI50", "setting": "Malme-3M", "result": "25.6 µM (inactive)"},
      {"measurement": "GI50", "setting": "HT-29", "result": "21.5 µM (inactive)"},
      {"measurement": "GI50", "setting": "SK-OV-3", "result": "31.8 µM (inactive)"},
      {"measurement": "GI50", "setting": "SW-620", "result": "31.4 µM (inactive)"},
      {"measurement": "GI50", "setting": "Hs-578T", "result": "20.5 µM (inactive)"},
      {"measurement": "GI50", "setting": "SR", "result": "17.5 µM (inactive)"},
      {"measurement": "GI50", "setting": "SF-268", "result": "17.3 µM (inactive)"},
      {"measurement": "GI50", "setting": "SNB-75", "result": "24.2 µM (inactive)"},
      {"measurement": "GI50", "setting": "NCI/ADR-RES", "result": "20.8 µM (inactive)"},
      {"measurement": "GI50", "setting": "HCC 2998", "result": "20.4 µM (inactive)"},
      {"measurement": "GI50", "setting": "CCRF-CEM", "result": "13.6 µM (inactive)"}
    ]}
  ]
}
